Measurements reported in patent US5169833A, “Substituted cyclic pentapeptides” (G. D. Searle & Co., priority 1991, dated 1992).
pIC50: −log10 of the molar value. Where a name gives a salt, the structure may show the parent alone.

Columns and labels:
[1] = tested on: Charles River albino mice; assay: Hot Plate Assay (mouse); assay type: in vivo
Excerpt: (§1) The "Tail Flick Assay" and the "Hot Plate Assay" (also known as the "Hind Paw Lick Assay") use thermal pain of transient duration, and are tests in which the pain threshold of the mice or rats being analyzed has not been altered. They are useful for evaluating the ability of a compound or drug to increase the animal's pain threshold (i.e. prolong response latencies), rather than to restore normal thresholds.
(§2) The heat-induced response to the Tail Flick Assay is a reflex reaction mediated at the level of the spinal cord. The heat-induced response to the Hot Plate Assay, however, is a more complex behavior requiring integration at higher centers in the brain.
The Tail Flick Assay and the Hot Plate Assay were performed generally in the manner described by G. Woolfe et al., "The Evaluation of the Analgesic Action of Pethidine Hydrochloride (Demerol)," J. Pharmacol. Exp. Ther., 80, 300, (1944), F. D'Amour et al., "A Method for Determining Loss of Pain Sensation," J. PharmacoI. […]
Tail flick response latencies (defined as the time that elapsed between the onset of a high intensity beam of light and the reflex removal of the mouse or rat's tail) and hot plate response latencies (defined as the time that elapsed between the placement of a mouse or rat on a 55 degrees Celsius surface and a lick of the hind paw) were separately, but consecutively, measured before (baseline) and again at fixed intervals after subcutaneous or intracerebroventricular administration of one of the pentapeptide compounds of the invention, the Mosberg Pentapeptide, or after the administration of saline (controls). […] The significance of any increase in tail flick response latency or hot plate response latency is determined using analyses of variance. […]
(§3) "Activity" or "Inactivity" was determined at a particular concentration of the peptide by a significant increase in tail flick or hot plate latencies above normal latencies.
(§4) The data resulting from the Tail Flick Assay and the Hot Plate Assay are presented in Tables II and III below, respectively. The numbers in parentheses are calculated ED50 values.

CD Charles River mice = assay: Writhing Assay (PBQ-induced writhing); assay type: in vivo; details: mouse; for Writhing Assay, number of mice out of ten in which peptide was active, Intragastric: i.g., 15 min before PBQ; for Writhing Assay, number of mice out of ten in which peptide was active, Intragastric / Writhing Assay, number of mice out of ten in which peptide was active, Subcutaneous: 10 mpk screening dose; for Writhing Assay ED50 value, Subcutaneous / Writhing Assay, number of mice out of ten in which peptide was active, Subcutaneous: s.c.; for Writhing Assay ED50 value, Subcutaneous: 25 min before PBQ i.p.
Excerpt: The "Writhing Assay" is one of the most widely-used experimental procedures for measuring the analgesic activity of different narcotic and nonnarcotic analgesic agents, and involves the continuous, chemically-induced pain of visceral origin to an animal, such as a mouse or rat. [Gyires et al., Arch. int. Pharmacodyn, 267, 131-140 (1984); C. Vander Wende et al., Fed. Proc., 15, 494 (1956); Koster et al., Fed. Proc., 18, 412 (1959); and Witken et al., J. Pharmacol. Exp. Ther., 133, 400-408 (1961).] Chemicals Which may be used to induce this pain include phenylbenzoquinone (PBQ) and acetic acid. As a result of the chemical irritation to the animal, a characteristic stretching and writhing of the animal (dorsiflexion of the animal's back, extension of its hindlimbs and the strong contraction of its abdominal musculature) will generally occur. […] Drugs which reduce the number of writhes of the animal appear to restore the normal nociceptive threshold of the animal.
This assay was conducted generally in the manner described by R. I. Taber, "Predictive Value of Analgesic Assays in Mice and Rats," Advances in Biochemical Psychopharmacology, 8, 191 (1974).
Two hundred CD Charles River mice, weighing 20 to 30 grams were used in this assay.
Twenty-five minutes after subcutaneous administration, and fifteen minutes after intragastric administration, to the mice of 10 mg per kilogram (mpk) of body weight of either a Test Pentapeptide or the Mosberg Pentapeptide, 0.1 ml per 10 g of body weight of a 0.025% w/v solution of PBQ was injected intraperitoneally into each mouse. Some mice were given saline in place of a Test Pentapeptide, or the Mosberg Pentapeptide, and were used as a control group.
Five minutes later, each mouse was individually placed into a glass beaker for observation, and the number of writhes occurring during the following ten-minute period was counted.
A pentapeptide compound was considered to be "active" (to have produced analgesia in a mouse) if, after the administration of 10 mg per kilogram (mpk) of body weight of the compound to the mouse, the number of writhes elicited by a mouse injected with PBQ was equal to, or less than, one-half the median number of writhes recorded for the saline-treated control group of mice that day, as described by R. I. Taber, supra.
The standard initial screening dose of a test compound employed in this assay was 10 mpk […] for both routes of administration. […] A maximum likelihood function was used to determine the ED50 value. (The slopes of the dose-response curves for all test compounds analyzed were compared as described by Tallarida and Murray, Manual of Pharmacologic Calculations, Page 11 (Springer Verlag, New York, 1981)).

[2] = tested on: Charles River Sprague-Dawley rats; assay: Tail Flick Assay (rat); assay type: in vivo; details: s.c., at 30 mpk
Excerpt: as §1
The heat-induced response to the Tail Flick Assay is a reflex reaction mediated at the level of the spinal cord. The heat-induced response to the Hot Plate Assay, however, is a more complex behavior requiring integration at higher centers in the brain. […]
Tail flick response latencies (defined as the time that elapsed between the onset of a high intensity beam of light and the reflex removal of the mouse or rat's tail) and hot plate response latencies (defined as the time that elapsed between the placement of a mouse or rat on a 55 degrees Celsius surface and a lick of the hind paw) were separately, but consecutively, measured before (baseline) and again at fixed intervals after subcutaneous or intracerebroventricular administration of one of the pentapeptide compounds of the invention, the Mosberg Pentapeptide, or after the administration of saline (controls). […]

[3] = tested on: Charles River albino mice; assay: Tail Flick Assay (mouse); assay type: in vivo; details: for Tail Flick Assay activity, Subcutaneous: s.c.
Excerpt: as §1, §2
The Tail Flick Assay and the Hot Plate Assay were performed generally in the manner described by G. Woolfe et al., "The Evaluation of the Analgesic Action of Pethidine Hydrochloride (Demerol)," J. Pharmacol. Exp. Ther., 80, 300, (1944), F. D'Amour et al., "A Method for Determining Loss of Pain Sensation," J. PharmacoI. Exp. Ther., 72, 74, 300-307 (1941), and E. Drower et al., "The Antinociceptive Effects of Prostaglandin Antagonists in the Rat," European Journal of Pharmacology, 133, 249-256 (1987).
Male Charles River albino mice and male Charles River Sprague-Dawley rats weighing 20 to 30 g, and 200 to 250 g, respectively, were employed in these assays.
Tail flick response latencies (defined as the time that elapsed between the onset of a high intensity beam of light and the reflex removal of the mouse or rat's tail) and hot plate response latencies (defined as the time that elapsed between the placement of a mouse or rat on a 55 degrees Celsius surface and a lick of the hind paw) were separately, but consecutively, measured before (baseline) and again at fixed intervals after subcutaneous or intracerebroventricular administration of one of the pentapeptide compounds of the invention, the Mosberg Pentapeptide, or after the administration of saline (controls). The cut-off latencies established to prevent tissue damage in the animals are 12 seconds or 14 seconds in the mouse and rat, respectively, in the Tail Flick Assay, and 40 seconds for both species in the Hot Plate Assay. The significance of any increase in tail flick response latency or hot plate response latency is determined using analyses of variance.
One way analyses of variance were used to determine the significance of the effect of the pentapeptides on response latencies. […]
as §3, §4

μ opioid receptors = μ opioid receptors (Rattus norvegicus, UniProt P33535); assay: Opiate Binding Assay, μ (3[H]-DAMPGO displacement)
Chain of μ opioid receptors (P33535 whole entry): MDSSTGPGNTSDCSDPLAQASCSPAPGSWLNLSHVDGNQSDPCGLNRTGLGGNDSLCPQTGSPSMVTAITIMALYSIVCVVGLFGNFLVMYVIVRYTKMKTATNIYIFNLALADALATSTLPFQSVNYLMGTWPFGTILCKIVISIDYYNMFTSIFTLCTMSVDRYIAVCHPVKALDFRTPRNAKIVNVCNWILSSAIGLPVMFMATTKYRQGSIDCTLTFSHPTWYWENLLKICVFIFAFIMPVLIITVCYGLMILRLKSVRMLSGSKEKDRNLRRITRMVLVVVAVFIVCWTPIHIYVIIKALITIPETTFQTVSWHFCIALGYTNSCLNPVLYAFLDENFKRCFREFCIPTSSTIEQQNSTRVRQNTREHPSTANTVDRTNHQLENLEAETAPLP

δ opioid receptors = δ opioid receptors (Rattus norvegicus, UniProt P33533); assay: Opiate Binding Assay, δ (3[H]-DSLET displacement)
Chain of δ opioid receptors (P33533 whole entry): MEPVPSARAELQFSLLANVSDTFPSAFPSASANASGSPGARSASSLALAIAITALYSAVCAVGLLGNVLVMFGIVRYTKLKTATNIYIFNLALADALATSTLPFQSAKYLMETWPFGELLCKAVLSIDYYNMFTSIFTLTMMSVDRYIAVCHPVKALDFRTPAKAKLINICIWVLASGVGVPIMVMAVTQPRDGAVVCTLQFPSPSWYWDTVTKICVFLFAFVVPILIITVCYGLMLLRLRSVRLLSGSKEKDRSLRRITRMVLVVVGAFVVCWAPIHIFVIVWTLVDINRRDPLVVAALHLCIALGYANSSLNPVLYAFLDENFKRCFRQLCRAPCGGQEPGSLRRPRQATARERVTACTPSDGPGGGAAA

[4] = i.c.v., dose giving half the maximum possible increase in latency

With Cc1cc(O)cc(C)c1C[C@H](N)C(=O)N[C@H]1C(=O)NCC(=O)N[C@@H](Cc2ccccc2)C(=O)N[C@@H](C(=O)O)C(C)(C)SSC1(C)C [Example 4, 2,6-dimethyl-L-tyrosyl-3-mercapto-D-valylglycyl-L-phenylalanyl-3-mercapto-D-valine, cyclic (2→5)-disulfide] the “Hot Plate Assay calculated ED50 value, Intracerebroventricular” value [1, 4] was 0.20 µg, the “Writhing Assay, number of mice out of ten in which peptide was active, Intragastric” value (“Writhing Assay, number … Intragastric” below) (CD Charles River mice) was 3/10 and the “Writhing Assay ED50 value, Subcutaneous” value (CD Charles River mice) was 2.6 mpk. The “Tail Flick Assay activity, Subcutaneous” value [2] was “Active”, the “Tail Flick Assay calculated ED50 value, Intracerebroventricular” value [3, 4] was 0.28 µg and the “Tail Flick Assay activity, Subcutaneous” value ([3]; at 33 mpk) was “Active”.
For Cc1cc(O)cc(C)c1C[C@H](N)C(=O)N[C@H]1C(=O)NCC(=O)N[C@@H](Cc2ccc(F)cc2)C(=O)N[C@@H](C(N)=O)C(C)(C)SSC1(C)C [Example 23, 2,6-dimethyl-L-tyrosyl-3-mercapto-D-valylglycyl-4-fluoro-L-phenylalanyl-3-mercapto-D-valinamide, cyclic (2→5)-disulfide], the “rank order of potency in the Writhing Assay” value (CD Charles River mice; from Table I) was “most potent compound of the invention tested”, the “Writhing Assay, number … Intragastric” value (CD Charles River mice) was 4/10 and the “Writhing Assay ED50 value, Subcutaneous” value (CD Charles River mice) was 1.9 mpk.
Cc1cc(O)c(C)c(C)c1CC(N)C(=O)N[C@H]1C(=O)NCC(=O)N[C@@H](Cc2ccccc2)C(=O)N[C@@H](C(=O)O)C(C)(C)SSC1(C)C (single isomer, unassigned) [Example 20 (Diastereomer A), 2,3,6-trimethyl-L-tyrosyl-3-mercapto-D-valylglycyl-L-phenylalanyl-3-mercapto-D-valine, cyclic (2→5) disulfide] showed a pIC50 (μ opioid receptors) of 4.62 and a pIC50 (δ opioid receptors) of 7.62.
Cc1cc(O)cc(C)c1C[C@H](N)C(=O)N[C@H]1C(=O)NCC(=O)N[C@@H](CC2CCCCC2)C(=O)N[C@@H](C(N)=O)C(C)(C)SSC1(C)C [Example 24, 2,6-dimethyl-L-tyrosyl-3-mercapto-D-valylglycyl-3-cyclohexyl-L-alanyl-3-mercapto-D-valinamide, cyclic (2→5)-disulfide] was tested, and the “Mean IC50 μ/δ Ratio” value (δ opioid receptors; ratio of mean IC50 values for μ and δ opioid receptors, above 1.0 = δ specific) was 1.6, the “Writhing Assay, number … Intragastric” value (CD Charles River mice) was 2/10 and the “Writhing Assay, number of mice out of ten in which peptide was active, Subcutaneous” value (CD Charles River mice) was 2/10.
In the case of Cc1cc(O)cc(C)c1C[C@H](N)C(=O)N[C@H]1C(=O)NCC(=O)N[C@@H](Cc2ccc(Cl)cc2)C(=O)N[C@@H](C(=O)OCc2ccccc2)C(C)(C)SSC1(C)C [Example 41, 2,6-dimethyl-L-tyrosyl-3-mercapto-D-valylglycyl-4-chloro-L-phenylalanyl-3-mercapto-D-valine, cyclic (2→5)-disulfide, phenylmethyl ester, monohydrochloride], the “Writhing Assay, number … Intragastric” value (CD Charles River mice) was 4/10 and the “Writhing Assay, number of mice out of ten in which peptide was active, Subcutaneous” value (CD Charles River mice) was 3/10.
For Cc1ccc(CC(N)C(=O)N[C@H]2C(=O)NCC(=O)N[C@@H](Cc3ccccc3)C(=O)N[C@@H](C(=O)O)C(C)(C)SSC2(C)C)c(C)c1O (single isomer, unassigned) [Example 21 (Diastereomer B), 3-hydroxy-2,4-dimethyl-L-phenylalanyl-3-mercapto-D-valyglycyl-L-phenylalanyl-3-mercapto-D-valine, cyclic (2→5)-disulfide], the pIC50 (δ opioid receptors) was 6.82.
In the case of COC(=O)[C@@H]1NC(=O)[C@H](Cc2ccccc2)NC(=O)CNC(=O)[C@H](NC(=O)[C@@H](N)Cc2c(C)cc(O)cc2C)C(C)(C)SSC1(C)C [Example 16, -dimethyl-L-tyrosyl-3-mercapto-D-valylglycyl-L-phenylalanyl-3-mercapto-D-valine, cyclic (2→5)-disulfide, methyl ester], the “Hot Plate Assay activity, Intracerebroventricular” value ([1]; i.c.v., at 10 μg) was “Active”, the “Hot Plate Assay activity, Subcutaneous” value ([1]; s.c., at 30 mpk) was “Active” and the “Writhing Assay, number … Intragastric” value (CD Charles River mice) was 3/10. For the same compound, the “Writhing Assay ED50 value, Subcutaneous” value (CD Charles River mice) was 2.1 mpk, the “Tail Flick Assay activity, Intracerebroventricular” value ([3]; i.c.v., at 10 μg) was “Active” and the “Tail Flick Assay activity, Subcutaneous” value ([3]; at 30 mpk) was “Active”.
